Reference: publication PMC8041284, “Tunable Methacrylamides for Covalent Ligand Directed Release Chemistry” (Journal of the American Chemical Society, 2021)
Where two headings read alike, the source gives them in different places.

Molecular target: BTK (Homo sapiens, UniProt Q06187)
Test: biochemical
[1] = read-out: BTK inhibition (%), 0.75 uM BTK, […] probe 3l, 15 min preincubation

BTK, sequence (Q06187 402-655 limits assumed): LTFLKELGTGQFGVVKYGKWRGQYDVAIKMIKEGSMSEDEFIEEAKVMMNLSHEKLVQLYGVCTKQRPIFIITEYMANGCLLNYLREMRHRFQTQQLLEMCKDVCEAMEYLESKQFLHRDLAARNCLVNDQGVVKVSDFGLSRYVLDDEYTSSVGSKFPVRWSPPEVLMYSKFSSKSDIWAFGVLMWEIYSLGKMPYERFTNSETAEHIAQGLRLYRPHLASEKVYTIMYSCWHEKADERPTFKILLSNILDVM

| Structure (SMILES) | inhibition at 10 µM [1] | inhibition at 10 µM (read-out: BTK inhibition (%)) |
| --- | --- | --- |
| CN(C)CCC(c1ccc(Br)cc1)c1ccccn1 (centres unmarked) [PCM-0064576] | -19.3% |  |
| C=C1C(=O)O[C@H]2[C@H]1CCC(C)=C1CC[C@@](C)(O)[C@@H]12 [PCM-0216540] | 23.9% |  |
| Cc1cccc(Nc2nc(-c3ccncc3)cs2)c1 [PCM-0094960] | -1.6% |  |
| CCn1cc(-c2ccnc3[nH]c(-c4cccc(CN(C)C)c4)cc23)c(-c2ccc(NC(=O)N(C)C)cc2)n1 [PCM-0095464] | 48.3% |  |
| CCN(CC)CCOC(=O)c1ccc(N)cc1 [PCM-0065363] | 3.9% |  |
| COc1cc(C2Oc3ccc([C@H]4Oc5cc(O)cc(O)c5C(=O)[C@@H]4O)cc3OC2CO)ccc1O (some centres unmarked) [PCM-0216498] | 21.6% |  |
| CC1=NCC[C@@H](C(=O)O)N1 [PCM-0216558] | -13.6% |  |
| C[C@@H]1C(=O)O[C@H]2C[C@@]34[C@H]5C[C@@H](C(C)(C)C)[C@]36[C@@H](OC(=O)[C@@H]6O)O[C@@]4(C(=O)O5)[C@]21O [PCM-0089814] | -7.8% |  |
| COC(=O)C1=CC[C@@]23CC[C@@H]([C@@](C)(/C=C/C=C(\C)C(=O)O)OC2=O)[C@@]3(OC(C)=O)CC1 [PCM-0216239] | 2.1% |  |
| CC(C)(C)n1nc(-c2ccc(Cl)cc2)c2c(N)ncnc21 [PCM-0095568] | 47.6% |  |
| O=C(NCc1ccncc1)C12CC3CC(C1)CC(c1ccc(Cl)cc1)(C3)C2 [PCM-0215553] | -6.9% |  |
| CCc1c(C(=O)NCCc2ccc(N3CCCCC3)cc2)[nH]c2ccc(Cl)cc12 [PCM-0214697] | 2.3% |  |
| COc1ccc(-c2cc(=O)c3c(O)c(OC)c(O)cc3o2)cc1OC [PCM-0214985] | 72.4% |  |
| C[C@]12CC[C@H](O)C[C@@H]1CC[C@@H]1[C@@H]2CC[C@]2(C)C(=O)CC[C@@H]12 [PCM-0214741] |  | -21.8% |
| CS(=O)(=O)c1ccc(-c2cnc(N)c(C(=O)Nc3ccccc3)n2)cc1 [PCM-0095599] | 10.3% |  |
| Cc1nc2c(O)cccc2c(=O)[nH]1 [PCM-0215466] | -10.8% |  |
| CC(C)=CCC/C(C)=C/CC/C(C)=C/CC/C=C(\C)CC/C=C(\C)CCC=C(C)C [PCM-0216030] | -9.7% |  |
| CCC/C=C1\OC(=O)C2=C1CCC=C2 [PCM-0216295] | 14.7% |  |
| Cc1c[nH]c(=O)[nH]c1=O [PCM-0216631] | 14.7% |  |

| Structure (SMILES) | inhibition at 10 µM [1] | inhibition at 10 µM (read-out: BTK inhibition (%)) |
| --- | --- | --- |
| Cc1[nH]nc2ccc(-c3cncc(OC[C@@H](N)Cc4ccccc4)c3)cc12 [PCM-0095333] | -17.2% |  |
| CN1CCN(C2CCN(C(=O)Nc3cc(Oc4ccc(NC(=O)C5(C(=O)Nc6ccc(F)cc6)CC5)c(F)c4)ccn3)CC2)CC1 [PCM-0095502] | 17.2% |  |
| C[C@H](CC(=O)C[C@@H](C)[C@H]1C[C@H](O)[C@@]2(C)C3=C(C(=O)C[C@]12C)[C@@]1(C)CCC(=O)C(C)(C)[C@@H]1C[C@@H]3O)C(=O)O [PCM-0214862] | -6.2% |  |
| Clc1ccc(C2(c3ccc(-c4cn[nH]c4)cc3)CCNCC2)cc1 [PCM-0095120] | 6.9% |  |
| Cn1cnc(=N)c2[nH]cnc21 [PCM-0095527] | -4.8% |  |
| COc1ccc(-c2ccc3ncc4c(c3c2)n(-c2ccc(N3CCNCC3)c(C(F)(F)F)c2)c(=O)n4C)cn1 [PCM-0095488] | 0.7% |  |
| N#CCNC(=O)c1ccc(-c2ccnc(Nc3ccc(N4CCOCC4)cc3)n2)cc1 [PCM-0095254] | 16.6% |  |
| Cc1cccc(C)c1NC(=O)c1cc(S(N)(=O)=O)c(Cl)cc1O [PCM-0215998] | 23.2% |  |
| CC(C)(O)CNc1ncc(-c2ccnc(Nc3ccncc3)n2)c(CC2CC2)n1 [PCM-0215768] | 9.7% |  |
| CNS(=O)(=O)CCc1ccc2[nH]cc(C3CCN(C)CC3)c2c1 [PCM-0065268] | -14.8% |  |
| N#Cc1cc(-c2n[nH]c(-c3ccncc3)n2)ccn1 [PCM-0214916] | -18.7% |  |
| O=C(O)c1ccc(O)c(O)c1 [PCM-0215076] | 2.8% |  |
| CCOC(=O)[C@H](CCc1ccccc1)N[C@@H](C)C(=O)N1Cc2ccccc2C[C@H]1C(=O)O [PCM-0086504] | -16.3% |  |
| Oc1c(F)cc(-c2cnccc2-c2ccc(N3CCOCC3)cc2)cc1F [PCM-0215582] | -12.4% |  |
| Cn1cc(-c2ccc(S(=O)(=O)n3ccc(/C=C/C(=O)Nc4ccccc4N)c3)cc2)cn1 [PCM-0215419] | 32.4% |  |
| Cn1c(COP(=O)(NCCBr)NCCBr)cnc1[N+](=O)[O-] [PCM-0214844] |  | -4.7% |
| Nc1ccn([C@@H]2O[C@H](COP(=O)(O)O)[C@@H](O)[C@H]2O)c(=O)n1 [PCM-0216146] | -0.9% |  |
| CC(C)(C)c1cnc(CSc2cnc(NC(=O)C3CCNCC3)s2)o1 [PCM-0094965] | -6.2% |  |
| CN1CCN(C2=Nc3cc(Cl)ccc3Nc3ccccc32)CC1 [PCM-0064549] | 4.7% |  |

| Structure (SMILES) | inhibition at 10 µM [1] | inhibition at 10 µM (read-out: BTK inhibition (%)) |
| --- | --- | --- |
| CN(C)CC[C@H](CSc1ccccc1)Nc1ccc(S(=O)(=O)NC(=O)c2ccc(N3CCN(Cc4ccccc4-c4ccc(Cl)cc4)CC3)cc2)cc1[N+](=O)[O-] [PCM-0095734] | 19.3% |  |
| NC(=O)N1CCC(CC(=O)N2CCC([C@H]3c4ncc(Br)cc4CCc4cc(Cl)cc(Br)c43)CC2)CC1 [PCM-0095392] | 32.7% |  |
| CNC(=O)[C@H](Cc1c[nH]c2ccccc12)NC(=O)[C@@H](CC(=O)NO)CC(C)C [PCM-0095723] | 19.3% |  |
| CNCC(O)c1ccc(O)cc1 (centres unmarked) [PCM-0065519] | 7% |  |
| O=S(=O)(O)c1ccc2cc(N=Nc3cc(S(=O)(=O)O)c4cccnc4c3O)ccc2c1 [PCM-0215685] | 54.1% |  |
| CCN(CC)Cc1cc(Nc2ccnc3cc(Cl)ccc23)ccc1O [PCM-0085909] | 8.3% |  |
| CCCCCCC1CCC(=O)O1 (centres unmarked) [PCM-0216147] | 0% |  |
| CC[C@H]1OC(=O)C[C@@H](OC(C)=O)[C@H](C)[C@@H](O[C@@H]2O[C@H](C)[C@@H](O[C@H]3C[C@@](C)(O)[C@@H](OC(=O)CC(C)C)[C@H](C)O3)[C@H](N(C)C)[C@H]2O)[C@@H](CC=O)C[C@@H](C)C(=O)/C=C/C(C)=C/[C@@H]1CO[C@@H]1O[C@H](C)[C@@H](O)[C@@H](OC)[C@H]1OC [PCM-0216006] | -20.1% |  |
| CC1(C)CC[C@]2(C(=O)O)CCC3=C([C@@H](CCl)C[C@@H]4[C@@]5(C)C[C@H](O)[C@H](O)[C@@](C)(C(=O)O)[C@@H]5CC[C@@]34C)[C@@H]2C1 [PCM-0216388] | -4.6% |  |
| O=c1c(-c2ccc(O)cc2)coc2cc(O[C@@H]3O[C@H](CO)[C@@H](O)[C@H](O)[C@H]3O)cc(O)c12 [PCM-0214858] | -9.3% |  |
| COc1ccc(CCC(=O)Nc2nc3ccc(Cl)cc3s2)cc1OC [PCM-0095584] | -0.8% |  |
| CCn1cc(C(=O)O)c(=O)c2cc(F)c(N3CCNCC3)nc21 [PCM-0086249] | 4.7% |  |
| O=C1c2cccc(O)c2C(=O)c2c(O)cc(CO)cc21 [PCM-0095288] | 16.3% |  |
| CCc1ccc(-c2nc(CSCC(=O)NCCc3ccccc3)c(C)o2)cc1 [PCM-0215904] | -4.6% |  |
| CN1CCN(CCCNc2ncc(Cl)c(-c3cc4c(C(=O)NC5CC5)cccc4s3)n2)CC1 [PCM-0215458] | -10.8% |  |
| CCOC(=O)c1csc(Nc2ccc(Cl)cc2)n1 [PCM-0215549] | 17.8% |  |
| O=C(O)c1ccc(Cl)cc1O [PCM-0214870] | -10.9% |  |
| C[N+](C)(C)CCCCCC[N+](C)(C)C [PCM-0065242] | -14.5% |  |
